{"source": "patent US10844077B2", "about": "“Thiazolyl-containing compounds for treating proliferative diseases” (Dana-Farber Cancer Institute, Inc., priority 2014, dated 2020)", "data": [{"molecular_target": "BTK (Homo sapiens (Human), UniProt Q06187)", "sequence (Q06187 whole entry, looked up)": "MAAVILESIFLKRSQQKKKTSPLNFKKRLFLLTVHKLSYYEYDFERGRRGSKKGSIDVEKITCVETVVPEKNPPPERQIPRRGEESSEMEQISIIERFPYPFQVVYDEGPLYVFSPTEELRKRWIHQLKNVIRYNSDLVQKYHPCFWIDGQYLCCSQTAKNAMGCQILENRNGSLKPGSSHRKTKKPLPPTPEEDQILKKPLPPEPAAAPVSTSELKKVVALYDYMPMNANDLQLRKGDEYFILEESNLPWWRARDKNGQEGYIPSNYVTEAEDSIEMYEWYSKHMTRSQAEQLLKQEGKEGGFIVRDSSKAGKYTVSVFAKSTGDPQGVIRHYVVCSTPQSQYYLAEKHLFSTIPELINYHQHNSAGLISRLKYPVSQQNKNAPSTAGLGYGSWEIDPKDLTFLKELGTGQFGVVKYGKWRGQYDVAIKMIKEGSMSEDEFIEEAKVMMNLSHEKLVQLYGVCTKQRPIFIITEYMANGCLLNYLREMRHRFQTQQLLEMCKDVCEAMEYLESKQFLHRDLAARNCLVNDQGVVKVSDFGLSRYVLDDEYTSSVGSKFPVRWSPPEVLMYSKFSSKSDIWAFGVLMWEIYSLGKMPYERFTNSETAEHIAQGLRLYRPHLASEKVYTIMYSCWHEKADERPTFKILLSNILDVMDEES", "assay": "BTK inhibitory activity", "format": "biochemical", "details": "not given", "units": {"IC50": "µM"}, "values": [{"molecule": "Cn1ccc(Nc2nc3ccc(Oc4ccccc4)nc3s2)n1", "note": "[III-6]", "IC50": 2.58}, {"molecule": "Cn1cc(Nc2nc3ccc(Oc4ccccc4)nc3s2)cn1", "note": "[III-7]", "IC50": "> 10"}, {"molecule": "c1ccc(Oc2ccc3nc(Nc4cnn(C5CCOCC5)c4)sc3n2)cc1", "note": "[III-8]", "IC50": "> 10"}, {"molecule": "c1ccc(Oc2ccc3nc(Nc4cnn(C5CCNCC5)c4)sc3n2)cc1", "note": "[III-9]", "IC50": 2.66}]}, {"tested_on": "OCI-Ly3", "assay": "CellTiter-Glo Luminescent cell viability assay", "format": "cell-based", "details": "Homo sapiens, OCI-Ly3; cell survival, 72 hours", "method": "(§1) The inhibitory activities of exemplary compounds described herein against select protein kinases and cells were determined. Cell survival following treatment of exemplary compounds described herein was assessed by CellTiter-Glo® Luminescent cell viability assay (Promega). The cells were seeded into 384 well plates with the EL406 Combination Washer Dispenser (BioTek Instruments, Inc.), and a series diluted exemplary compounds (20˜0.0006 μM) were injected into the culture media with the JANUS Automated Workstation (PerkinElmer Inc.). The cells were treated for 72 hours at 37° C. with 5% CO2. Luminescent measurement is performed using the 2104 Envision® Multilabel Reader (PerkinElmer Inc.). EC50 values were calculated with […] PRISM software.", "units": {"EC50": "µM"}, "values": [{"molecule": "Cc1nc(Nc2ncc(C(=O)Nc3c(C)cccc3Cl)s2)cc(N2CCN(CCO)CC2)n1", "note": "[Dasatinib, dasatinib, reference compound]", "EC50": 8.06}]}, {"tested_on": "OCI-Ly7", "assay": "CellTiter-Glo Luminescent cell viability assay", "format": "cell-based", "details": "Homo sapiens, OCI-Ly7; cell survival, 72 hours", "method": "as §1", "units": {"EC50": "µM"}, "values": [{"molecule": "Cc1nc(Nc2ncc(C(=O)Nc3c(C)cccc3Cl)s2)cc(N2CCN(CCO)CC2)n1", "note": "[Dasatinib, dasatinib, reference compound]", "EC50": 0.155}]}, {"tested_on": "OCI-Ly7", "assay": "CellTiter-Glo Luminescent cell viability assay", "format": "cell-based", "details": "cell survival, 72 hours", "method": "as §1", "units": {"EC50": "µM"}, "values": [{"molecule": "C=CC(=O)N1CCCC(Nc2nc(CN3CCOCC3)cc(Nc3ncc(C(=O)Nc4c(C)cccc4C)s3)n2)C1", "note": "(stereo not drawn) [Compound I-12]", "EC50": 0.309}]}, {"tested_on": "OCI-Ly19", "assay": "CellTiter-Glo Luminescent cell viability assay", "format": "cell-based", "details": "Homo sapiens, OCI-LY19; cell survival, 72 hours", "method": "as §1", "units": {"EC50": "µM"}, "values": [{"molecule": "Cc1nc(Nc2ncc(C(=O)Nc3c(C)cccc3Cl)s2)cc(N2CCN(CCO)CC2)n1", "note": "[Dasatinib, dasatinib, reference compound]", "EC50": 3.86}]}, {"tested_on": "OCI-Ly19", "assay": "CellTiter-Glo Luminescent cell viability assay", "format": "cell-based", "details": "cell survival, 72 hours", "method": "as §1", "units": {"EC50": "µM"}, "values": [{"molecule": "Cn1ccc(Nc2nc3ccc(Oc4ccccc4)nc3s2)n1", "note": "[III-6]", "EC50": 0.321}, {"molecule": "Cn1cc(Nc2nc3ccc(Oc4ccccc4)nc3s2)cn1", "note": "[III-7]", "EC50": 9.52}, {"molecule": "c1ccc(Oc2ccc3nc(Nc4cnn(C5CCOCC5)c4)sc3n2)cc1", "note": "[III-8]", "EC50": 12.6}, {"molecule": "c1ccc(Oc2ccc3nc(Nc4cnn(C5CCNCC5)c4)sc3n2)cc1", "note": "[III-9]", "EC50": 7.06}]}, {"tested_on": "BCWM.1", "assay": "CellTiter-Glo Luminescent cell viability assay", "format": "cell-based", "details": "BCWM1; cell survival, 72 hours", "method": "as §1", "units": {"EC50": "µM"}, "values": [{"molecule": "Cc1nc(Nc2ncc(C(=O)Nc3c(C)cccc3Cl)s2)cc(N2CCN(CCO)CC2)n1", "note": "[Dasatinib, dasatinib, reference compound]", "EC50": 0.0012}]}, {"tested_on": "BCWM.1", "assay": "CellTiter-Glo Luminescent cell viability assay", "format": "cell-based", "details": "cell survival, 72 hours", "method": "as §1", "units": {"EC50": "µM"}, "values": [{"molecule": "C=CC(=O)N1CCCC(Nc2nc(CN3CCOCC3)cc(Nc3ncc(C(=O)Nc4c(C)cccc4C)s3)n2)C1", "note": "(stereo not drawn) [Compound I-12]", "EC50": 0.0755}, {"molecule": "Cn1ccc(Nc2nc3ccc(Oc4ccccc4)nc3s2)n1", "note": "[III-6]", "EC50": 0.27}, {"molecule": "Cn1cc(Nc2nc3ccc(Oc4ccccc4)nc3s2)cn1", "note": "[III-7]", "EC50": "> 20"}, {"molecule": "c1ccc(Oc2ccc3nc(Nc4cnn(C5CCOCC5)c4)sc3n2)cc1", "note": "[III-8]", "EC50": 7.25}, {"molecule": "c1ccc(Oc2ccc3nc(Nc4cnn(C5CCNCC5)c4)sc3n2)cc1", "note": "[III-9]", "EC50": 8.29}]}, {"tested_on": "HBL-1", "assay": "CellTiter-Glo Luminescent cell viability assay", "format": "cell-based", "details": "HBL1; cell survival, 72 hours", "method": "as §1", "units": {"EC50": "µM"}, "values": [{"molecule": "Cc1nc(Nc2ncc(C(=O)Nc3c(C)cccc3Cl)s2)cc(N2CCN(CCO)CC2)n1", "note": "[Dasatinib, dasatinib, reference compound]", "EC50": 0.19}]}, {"tested_on": "HBL-1", "assay": "CellTiter-Glo Luminescent cell viability assay", "format": "cell-based", "details": "cell survival, 72 hours", "method": "as §1", "units": {"EC50": "µM"}, "values": [{"molecule": "C=CC(=O)N1CCCC(Nc2nc(CN3CCOCC3)cc(Nc3ncc(C(=O)Nc4c(C)cccc4C)s3)n2)C1", "note": "(stereo not drawn) [Compound I-12]", "EC50": 1.2}, {"molecule": "Cn1ccc(Nc2nc3ccc(Oc4ccccc4)nc3s2)n1", "note": "[III-6]", "EC50": 0.45}, {"molecule": "Cn1cc(Nc2nc3ccc(Oc4ccccc4)nc3s2)cn1", "note": "[III-7]", "EC50": "> 20"}, {"molecule": "c1ccc(Oc2ccc3nc(Nc4cnn(C5CCOCC5)c4)sc3n2)cc1", "note": "[III-8]", "EC50": "> 20"}, {"molecule": "c1ccc(Oc2ccc3nc(Nc4cnn(C5CCNCC5)c4)sc3n2)cc1", "note": "[III-9]", "EC50": "> 20"}]}, {"tested_on": "TMD-8", "assay": "CellTiter-Glo Luminescent cell viability assay", "format": "cell-based", "details": "Homo sapiens, TMD8; cell survival, 72 hours", "method": "as §1", "units": {"EC50": "µM"}, "values": [{"molecule": "Cc1nc(Nc2ncc(C(=O)Nc3c(C)cccc3Cl)s2)cc(N2CCN(CCO)CC2)n1", "note": "[Dasatinib, dasatinib, reference compound]", "EC50": 0.0187}]}, {"tested_on": "TMD-8", "assay": "CellTiter-Glo Luminescent cell viability assay", "format": "cell-based", "details": "cell survival, 72 hours", "method": "as §1", "units": {"EC50": "µM"}, "values": [{"molecule": "C=CC(=O)N1CCCC(Nc2nc(CN3CCOCC3)cc(Nc3ncc(C(=O)Nc4c(C)cccc4C)s3)n2)C1", "note": "(stereo not drawn) [Compound I-12]", "EC50": 0.453}, {"molecule": "Cn1ccc(Nc2nc3ccc(Oc4ccccc4)nc3s2)n1", "note": "[III-6]", "EC50": 0.467}, {"molecule": "Cn1cc(Nc2nc3ccc(Oc4ccccc4)nc3s2)cn1", "note": "[III-7]", "EC50": "> 20"}, {"molecule": "c1ccc(Oc2ccc3nc(Nc4cnn(C5CCOCC5)c4)sc3n2)cc1", "note": "[III-8]", "EC50": 14.6}, {"molecule": "c1ccc(Oc2ccc3nc(Nc4cnn(C5CCNCC5)c4)sc3n2)cc1", "note": "[III-9]", "EC50": 18.3}]}, {"tested_on": "OPM-2", "assay": "CellTiter-Glo Luminescent cell viability assay", "format": "cell-based", "details": "Homo sapiens, cell survival, 72 hours", "method": "as §1", "units": {"EC50": "µM"}, "values": [{"molecule": "Cc1nc(Nc2ncc(C(=O)Nc3c(C)cccc3Cl)s2)cc(N2CCN(CCO)CC2)n1", "note": "[Dasatinib, dasatinib, reference compound]", "EC50": 7.11}]}, {"tested_on": "RPMI-8226", "assay": "CellTiter-Glo Luminescent cell viability assay", "format": "cell-based", "details": "Homo sapiens, cell survival, 72 hours", "method": "as §1", "units": {"EC50": "µM"}, "values": [{"molecule": "Cc1nc(Nc2ncc(C(=O)Nc3c(C)cccc3Cl)s2)cc(N2CCN(CCO)CC2)n1", "note": "[Dasatinib, dasatinib, reference compound]", "EC50": 5.39}]}, {"tested_on": "Ramos", "assay": "CellTiter-Glo Luminescent cell viability assay", "format": "cell-based", "details": "Homo sapiens, Ramos; cell survival, 72 hours", "method": "as §1", "units": {"EC50": "µM"}, "values": [{"molecule": "Cc1nc(Nc2ncc(C(=O)Nc3c(C)cccc3Cl)s2)cc(N2CCN(CCO)CC2)n1", "note": "[Dasatinib, dasatinib, reference compound]", "EC50": 4.56}]}, {"tested_on": "Ramos", "assay": "CellTiter-Glo Luminescent cell viability assay", "format": "cell-based", "details": "cell survival, 72 hours", "method": "as §1", "units": {"EC50": "µM"}, "values": [{"molecule": "Cn1ccc(Nc2nc3ccc(Oc4ccccc4)nc3s2)n1", "note": "[III-6]", "EC50": 0.749}, {"molecule": "Cn1cc(Nc2nc3ccc(Oc4ccccc4)nc3s2)cn1", "note": "[III-7]", "EC50": "> 20"}, {"molecule": "c1ccc(Oc2ccc3nc(Nc4cnn(C5CCOCC5)c4)sc3n2)cc1", "note": "[III-8]", "EC50": "> 20"}, {"molecule": "c1ccc(Oc2ccc3nc(Nc4cnn(C5CCNCC5)c4)sc3n2)cc1", "note": "[III-9]", "EC50": 11.8}]}, {"tested_on": "MWCL-1", "assay": "CellTiter-Glo Luminescent cell viability assay", "format": "cell-based", "details": "cell survival, 72 hours", "method": "as §1", "units": {"EC50": "µM"}, "values": [{"molecule": "C=CC(=O)N1CCCC(Nc2nc(CN3CCOCC3)cc(Nc3ncc(C(=O)Nc4c(C)cccc4C)s3)n2)C1", "note": "(stereo not drawn) [Compound I-12]", "EC50": 0.317}, {"molecule": "Cc1nc(Nc2ncc(C(=O)Nc3c(C)cccc3Cl)s2)cc(N2CCN(CCO)CC2)n1", "note": "[Dasatinib, dasatinib, reference compound]", "EC50": 0.00741}, {"molecule": "Cn1ccc(Nc2nc3ccc(Oc4ccccc4)nc3s2)n1", "note": "[III-6]", "EC50": 2.17}, {"molecule": "Cn1cc(Nc2nc3ccc(Oc4ccccc4)nc3s2)cn1", "note": "[III-7]", "EC50": "> 20"}, {"molecule": "c1ccc(Oc2ccc3nc(Nc4cnn(C5CCOCC5)c4)sc3n2)cc1", "note": "[III-8]", "EC50": "> 20"}, {"molecule": "c1ccc(Oc2ccc3nc(Nc4cnn(C5CCNCC5)c4)sc3n2)cc1", "note": "[III-9]", "EC50": 16.6}]}, {"molecular_target": "HCK (Homo sapiens (Human), UniProt P08631)", "sequence (P08631 whole entry)": "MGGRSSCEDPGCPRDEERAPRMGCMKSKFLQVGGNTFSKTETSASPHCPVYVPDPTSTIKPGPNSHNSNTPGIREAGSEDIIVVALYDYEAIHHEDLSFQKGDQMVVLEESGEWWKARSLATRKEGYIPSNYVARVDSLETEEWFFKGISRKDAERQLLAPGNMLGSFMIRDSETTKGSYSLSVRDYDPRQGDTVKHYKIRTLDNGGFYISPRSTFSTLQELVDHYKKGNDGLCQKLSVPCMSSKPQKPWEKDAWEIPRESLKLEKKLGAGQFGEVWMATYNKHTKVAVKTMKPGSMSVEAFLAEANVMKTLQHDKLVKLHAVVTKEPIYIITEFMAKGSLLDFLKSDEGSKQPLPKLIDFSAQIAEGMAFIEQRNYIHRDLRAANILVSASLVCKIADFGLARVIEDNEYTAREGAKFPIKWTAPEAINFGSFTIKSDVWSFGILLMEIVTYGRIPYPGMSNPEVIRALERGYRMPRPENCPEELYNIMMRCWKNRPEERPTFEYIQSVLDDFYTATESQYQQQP", "assay": "HCK inhibitory activity", "format": "biochemical", "details": "not given", "units": {"IC50": "µM"}, "values": [{"molecule": "Cn1cc(Nc2nc3ccc(Oc4ccccc4)nc3s2)cn1", "note": "[III-7]", "IC50": "> 10"}, {"molecule": "c1ccc(Oc2ccc3nc(Nc4cnn(C5CCOCC5)c4)sc3n2)cc1", "note": "[III-8]", "IC50": "> 10"}]}]}
